Experimental findings from US20240228482A1, “COMPOUNDS, COMPOSITIONS AND METHODS OF TREATING CANCER” (HOTSPOT THERAPEUTICS, INC., priority 2021, published 2024) are described below.

Structures are written as SMILES. Bounds are passed on as bounds.

This test concerns the target T1, CBL-B (Homo sapiens, UniProt Q13191).
T1 construct: GST
The experiment in a line: CBL-B TR-FRET IC50 screening (E1/E2 ubiquitination, Biotin-Ubiquitin, Anti GST-Tb donor / Streptavidin-d2 acceptor). In kind it is biochemical. As to conditions: CBL-B 10 nM final; 11-point titration from 100 uM; binned A-F; read-out: CBL-B TR-FRET activity IC50.

T1 sequence (Q13191 whole entry): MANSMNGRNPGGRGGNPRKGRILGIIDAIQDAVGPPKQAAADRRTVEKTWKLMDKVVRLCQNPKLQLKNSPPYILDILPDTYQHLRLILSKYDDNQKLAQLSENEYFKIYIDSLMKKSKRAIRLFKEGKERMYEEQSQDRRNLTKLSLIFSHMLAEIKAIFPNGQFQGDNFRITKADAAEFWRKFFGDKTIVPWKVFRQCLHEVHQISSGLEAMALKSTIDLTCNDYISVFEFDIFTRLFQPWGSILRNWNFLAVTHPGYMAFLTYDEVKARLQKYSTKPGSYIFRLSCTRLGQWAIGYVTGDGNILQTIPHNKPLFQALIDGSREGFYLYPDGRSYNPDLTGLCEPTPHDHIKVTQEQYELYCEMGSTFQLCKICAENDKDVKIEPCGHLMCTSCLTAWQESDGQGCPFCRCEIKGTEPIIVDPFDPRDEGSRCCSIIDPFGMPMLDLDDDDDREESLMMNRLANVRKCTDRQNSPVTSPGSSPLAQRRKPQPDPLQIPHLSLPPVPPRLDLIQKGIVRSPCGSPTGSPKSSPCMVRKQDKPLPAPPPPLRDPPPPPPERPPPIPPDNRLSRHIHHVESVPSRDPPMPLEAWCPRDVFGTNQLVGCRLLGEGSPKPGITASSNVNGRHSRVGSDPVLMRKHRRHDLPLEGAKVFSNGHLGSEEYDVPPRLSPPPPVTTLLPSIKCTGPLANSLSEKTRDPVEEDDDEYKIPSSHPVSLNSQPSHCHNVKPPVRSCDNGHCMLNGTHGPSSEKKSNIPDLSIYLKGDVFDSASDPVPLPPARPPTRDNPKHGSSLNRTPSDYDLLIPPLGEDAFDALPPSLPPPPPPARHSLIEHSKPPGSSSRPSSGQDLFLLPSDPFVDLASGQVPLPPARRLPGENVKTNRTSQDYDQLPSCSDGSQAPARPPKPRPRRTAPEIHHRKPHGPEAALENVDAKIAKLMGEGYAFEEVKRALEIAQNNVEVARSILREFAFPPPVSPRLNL

A word on the IC50: it is the concentration that gives 50% inhibition. As to `CN1CC2CCC(C1)N2c1cc(C(F)(F)F)c2cn(-c3cccc(C4(Cc5nncn5C)COC4)c3)c(=O)n2c1` [Compound 15], the IC50 is 100 to 300 nM.
The same measure for `Cn1cnnc1C[C@@H]1CCc2c1cccc2-n1cc2c(C(F)(F)F)cccn2c1=O` [Compound 17]: over 10000 nM; for `Cn1cnnc1CC1(c2cccc(-n3cc4c(C(F)(F)F)cc(C#N)cn4c3=O)c2)COC1` [Compound 18]: 100 to 300 nM.
The same measure for `CC(=O)c1cc(C(F)(F)F)c2cn(-c3cccc(C4(Cc5nncn5C)COC4)c3)c(=O)n2c1` [Compound 19]: 1000 to 3000 nM.
The figure for `Cn1cnnc1CC1(c2cccc(-n3cc4c(C(F)(F)F)cc(C(=O)O)cn4c3=O)c2)COC1` [Compound 20] is 3000 to 10000 nM; for `Cn1cnnc1CC1(c2cccc(-n3cc4c(C(F)(F)F)cc(CN5CC6(CC6)C5)cn4c3=O)c2)COC1` [Compound 21] it is under 100 nM; for `Cn1cnnc1CC1(c2cccc(-n3cc4c(C(F)(F)F)cc(CN5CCC[C@H](F)C5)cn4c3=O)c2)COC1` [Compound 22] it is under 100 nM.
On to `Cn1cnnc1CC1(c2cccc(-n3cc4c(C(F)(F)F)cc(CN5CC(F)C5)cn4c3=O)c2)COC1` [Compound 23], for which the IC50 is under 100 nM.
The figure for `Cn1cnnc1CC1(c2cccc(-n3cc4c(C(F)(F)F)cc(CN5CC[C@@H](C#N)C5)cn4c3=O)c2)COC1` [Compound 24] is under 100 nM.
The figure for `Cn1cnnc1CC1(c2cccc(-n3cc4c(C(F)(F)F)cc(CN5CC6CC6C5)cn4c3=O)c2)COC1` (stereo not shown) [Compound 25] is under 100 nM; for `Cn1cnnc1C(F)(F)[C@](C)(F)c1cccc(-n2cc3c(C(F)(F)F)cc(CN4CC[C@H](F)C4)cn3c2=O)c1` [Compound 26] it is 100 to 300 nM; for `Cc1c2c(C(F)(F)F)cccn2c(=O)n1-c1cccc(C(C)Cc2nncn2C)c1` (stereo not shown) [Compound 27] it is over 10000 nM.
The figure for `Cn1cnnc1C(F)(F)[C@@](C)(F)c1cccc(-n2cc3c(C(F)(F)F)cc(CN4CC[C@H](F)C4)cn3c2=O)c1` [Compound 28] is 100 to 300 nM.
Take `C[C@H]1CCCN(Cc2cc(C(F)(F)F)c3cn(-c4cccc(C5(Cc6nncn6C)COC5)c4)c(=O)n3c2)C1` [Compound 29]: the IC50 was under 100 nM.
The figure for `CNC(=O)c1cc(C(F)(F)F)c2cn(-c3cccc(C4(Cc5nncn5C)COC4)c3)c(=O)n2c1` [Compound 30] is 1000 to 3000 nM.
The same measure for `CN(C)C(=O)c1cc(C(F)(F)F)c2cn(-c3cccc(C4(Cc5nncn5C)COC4)c3)c(=O)n2c1` [Compound 31]: 301 to 1000 nM.
The figure for `C[C@@H](c1cc(C(F)(F)F)c2cn(-c3cccc(C4(Cc5nncn5C)COC4)c3)c(=O)n2c1)N1CCC(F)CC1` [Compound 33] is under 100 nM; for `C[C@H](c1cc(C(F)(F)F)c2cn(-c3cccc(C4(Cc5nncn5C)COC4)c3)c(=O)n2c1)N1CCC(F)CC1` [Compound 34] it is under 100 nM; for `Cn1cnnc1C(F)(F)[C@](C)(F)c1cccc(-n2cc3c(C(F)(F)F)cc(CN4CCC(F)(F)C4)cn3c2=O)c1` [Compound 35] it is 3000 to 10000 nM.
`Cn1cnnc1C(F)(F)[C@@](C)(F)c1cccc(-n2cc3c(C(F)(F)F)cc(CN4CCC(F)(F)C4)cn3c2=O)c1` [Compound 36]: the IC50 fell in the range of 301 to 1000 nM.
As for `C[C@H](c1cc(C(F)(F)F)c2cn(-c3cccc(C4(Cc5nncn5C)COC4)c3)c(=O)n2c1)N1CC2CC2C1` (stereo partly shown) [Compound 37], the IC50 is under 100 nM.
The same measure for `CN(CCO)C(=O)c1cc(C(F)(F)F)c2cn(-c3cccc(C4(Cc5nncn5C)COC4)c3)c(=O)n2c1` [Compound 38]: 301 to 1000 nM.
The figure for `C[C@@H](c1cc(C(F)(F)F)c2cn(-c3cccc(C4(Cc5nncn5C)COC4)c3)c(=O)n2c1)N1CC[C@H](F)C1` [Compound 39] is under 100 nM; for `C[C@H](c1cc(C(F)(F)F)c2cn(-c3cccc(C4(Cc5nncn5C)COC4)c3)c(=O)n2c1)N1CC[C@H](F)C1` [Compound 40] it is under 100 nM.
The same measure for `C[C@@H](c1cc(C(F)(F)F)c2cn(-c3cccc(C4(Cc5nncn5C)COC4)c3)c(=O)n2c1)N1CCC(C)(F)CC1` [Compound 41]: under 100 nM; for `C[C@H](c1cc(C(F)(F)F)c2cn(-c3cccc(C4(Cc5nncn5C)COC4)c3)c(=O)n2c1)N1CCC(C)(F)CC1` [Compound 42]: under 100 nM.
Consider `Cn1cnnc1[C@@H]1C[C@@H]1c1cccc(-n2cc3c(C(F)(F)F)cccn3c2=O)c1` [Compound 43], for which the IC50 was in the range of 3000 to 10000 nM.
The figure for `Cn1cnnc1[C@@H](F)C1(c2cccc(-n3cc4c(C(F)(F)F)cc(CN5CCC(F)CC5)cn4c3=O)c2)COC1` [Compound 44] is under 100 nM.
The same measure for `C[C@H](Cc1nnc[nH]1)c1cccc(-n2cc3c(C(F)(F)F)cccn3c2=O)c1` [Compound 46]: 1000 to 3000 nM; for `C[C@@H](Cc1nnc[nH]1)c1cccc(-n2cc3c(C(F)(F)F)cccn3c2=O)c1` [Compound 47]: over 10000 nM.
The figure for `C[C@H]1CCCN(Cc2cc(C(F)(F)F)c3cn(-c4cccc(C5(Cc6nncn6C(F)F)COC5)c4)c(=O)n3c2)C1` [Compound 48] is under 100 nM; for `COC1CCN(Cc2cc(C(F)(F)F)c3cn(-c4cccc(C5(Cc6nncn6C)COC5)c4)c(=O)n3c2)CC1` [Compound 49] it is under 100 nM; for `COCCNCc1cc(C(F)(F)F)c2cn(-c3cccc(C4(Cc5nncn5C)COC4)c3)c(=O)n2c1` [Compound 50] it is under 100 nM.
`COCCN(C)Cc1cc(C(F)(F)F)c2cn(-c3cccc(C4(Cc5nncn5C)COC4)c3)c(=O)n2c1` [Compound 51]: the IC50 lay within 301 to 1000 nM.
The same measure for `CC(Cc1nncn1C)c1ccc(F)c(-n2cc3c(C(F)(F)F)cccn3c2=O)c1` (stereo not shown) [Compound 52]: 3000 to 10000 nM; for `Cn1cnnc1CC1(c2cccc(-n3cc4c(C(F)(F)F)cc(CN5CCC(O)CC5)cn4c3=O)c2)COC1` [Compound 53]: under 100 nM.
The same measure for `C[C@@H](c1cc(C(F)(F)F)c2cn(-c3cccc(C4([C@H](F)c5nncn5C)COC4)c3)c(=O)n2c1)N1CCC2(CC2)C1` [Compound 54]: 100 to 300 nM; for `C[C@H](c1cc(C(F)(F)F)c2cn(-c3cccc(C4([C@@H](F)c5nncn5C)COC4)c3)c(=O)n2c1)N1CCC2(CC2)C1` [Compound 55]: under 100 nM; for `C[C@@H](c1cc(C(F)(F)F)c2cn(-c3cccc(C4([C@@H](F)c5nncn5C)COC4)c3)c(=O)n2c1)N1CCC2(CC2)C1` [Compound 56]: under 100 nM.
The same measure for `C[C@H](c1cc(C(F)(F)F)c2cn(-c3cccc(C4([C@H](F)c5nncn5C)COC4)c3)c(=O)n2c1)N1CCC2(CC2)C1` [Compound 57]: under 100 nM; for `CN1CC=C(c2cc(C(F)(F)F)c3cn(-c4cccc(C5(Cc6nncn6C)COC5)c4)c(=O)n3c2)CC1` [Compound 58, 2-(3-[3-[(4-methyl-1,2,4-triazol-3-yl)methyl]oxetan-3-yl]phenyl)-6-(1-methyl-3,6-dihydro-2H-pyridin-4-yl)-8-(trifluoromethyl)imidazo[1,5-a]pyridin-3-one]: 1000 to 3000 nM.
With `Cn1cnnc1CC1(c2cccc(-n3cc4c(C(F)(F)F)cc(CN5CC(O)C5)cn4c3=O)c2)COC1` [Compound 61], the IC50 is 100 to 300 nM.
The figure for `CN1CCC=C(c2cc(C(F)(F)F)c3cn(-c4cccc(C5(Cc6nncn6C)COC5)c4)c(=O)n3c2)C1` [Compound 63] is 100 to 300 nM.
The figure for `Cn1cnnc1CC1(c2cccc(-n3cc4c(C(F)(F)F)cc(C5=CCNC5)cn4c3=O)c2)COC1` [Compound 64] is 1000 to 3000 nM.
The same measure for `Cn1cnnc1CC1(c2cccc(-n3cc4c(C(F)(F)F)cc(C5CCN(C(=O)OC(C)(C)C)C5)cn4c3=O)c2)COC1` (stereo not shown) [Compound 65]: 301 to 1000 nM.
As for `Cn1cnnc1CC1(c2cccc(-n3cc4c(Cl)cc(CN5CC[C@H](F)C5)cn4c3=O)c2)COC1` [Compound 66], the 50% inhibitory concentration (IC50) was under 100 nM.
The same measure for `C=C(C)C[C@H](c1cccc(-n2cc3c(C(F)(F)F)cc(CN4CCC[C@H](C)C4)cn3c2=O)c1)c1nncn1C` [Compound 69]: under 100 nM; for `Cc1cccn2c(=O)n(-c3cccc(C4(Cc5nncn5C)COC4)c3)cc12` [Compound 70]: 301 to 1000 nM.
The figure for `Cn1cnnc1CC1(c2cccc(-n3cc4ccccn4c3=O)c2)COC1` [Compound 71] is 100 to 300 nM; for `C[C@@H]1CN(Cc2cc(C(F)(F)F)c3cn(-c4cccc(C5(Cc6nncn6C)COC5)c4)c(=O)n3c2)CCC1(F)F` [Compound 72] it is 301 to 1000 nM; for `C[C@H]1CN(Cc2cc(C(F)(F)F)c3cn(-c4cccc(C5(Cc6nncn6C)COC5)c4)c(=O)n3c2)CCC1(F)F` [Compound 73] it is 3000 to 10000 nM.
The figure for `C[C@H]1CCCN(Cc2cc(C(F)(F)F)c3cn(-c4cccc(C5(c6nncn6C)CC6(CC6)C5)c4)c(=O)n3c2)C1` [Compound 74] is 100 to 300 nM.
Consider `Cn1cnnc1CC1(c2cccc(-n3cc4c(C(F)(F)F)cc(CNCCO)cn4c3=O)c2)COC1` [Compound 75], for which the IC50 was in the range of 100 to 300 nM.
The figure for `CN(CCO)Cc1cc(C(F)(F)F)c2cn(-c3cccc(C4(Cc5nncn5C)COC4)c3)c(=O)n2c1` [Compound 76] is 100 to 300 nM; for `COCCOCc1cc(C(F)(F)F)c2cn(-c3cccc(C4(Cc5nncn5C)COC4)c3)c(=O)n2c1` [Compound 77] it is under 100 nM.
The figure for `CN1CC=C(c2cc(C(F)(F)F)c3cn(-c4cccc(C5(Cc6nncn6C)COC5)c4)c(=O)n3c2)C1` [Compound 78] is under 100 nM; for `CN(C)C1CC=C(c2cc(C(F)(F)F)c3cn(-c4cccc(C5(Cc6nncn6C)COC5)c4)c(=O)n3c2)CC1` (stereo not shown) [Compound 79] it is under 100 nM.
`Cn1cnnc1CC1(c2cccc(-n3cc4c(C(F)(F)F)cc(C5CCNC5)cn4c3=O)c2)COC1` (stereo not shown) [Compound 80]: the IC50 fell in the range of 301 to 1000 nM.
Take `CN1CCC(c2cc(C(F)(F)F)c3cn(-c4cccc(C5(Cc6nncn6C)COC5)c4)c(=O)n3c2)C1` (stereo not shown) [Compound 83]: the IC50 was over 10000 nM.
The same measure for `CN1CCCC(c2cc(C(F)(F)F)c3cn(-c4cccc(C5(Cc6nncn6C)COC5)c4)c(=O)n3c2)C1` (stereo not shown) [Compound 84]: over 10000 nM; for `C[C@H]1CCCN(Cc2cc(C(F)(F)F)c3cn(-c4cccc([C@H](c5nncn5C)C5CCC5)c4)c(=O)n3c2)C1` [Compound 85]: under 100 nM.
